Measured values from patent publication US10987360B2, “Hepatitis B core protein modulators” (Assembly Biosciences, Inc., priority 2016, dated 2021).
Read-outs that look alike come from different tables or passages of the source.

Tests used:
[1] = test system: HBV viral load in AD38 cells; test: Viral load production in AD38 cells, quantitative PCR of the core sequence in supernatant; type: cell-based; details: 6 days incubation; for activity at 10 µM: Hepatitis B virus, 144 h
Method: (§1) Assay Measuring Activity of Compounds on Viral Production in and on Viability of AD38 Cells
(§2) AD38 cells grown in a 175 cm flask with “Growth Medium” (DMEM/F12 (1:1) (cat #SH30023.01, Hyclone, 1×Pen/step (cat #: 30-002-CL, Mediatech, Inc), 10% FBS (cat #: 101, Tissue Culture Biologics), 250 μg/mL G418 (cat #: 30-234-CR, Mediatech, Inc), 1 μg/mL Tetracycline (cat #: T3325, Teknova)) were detached with 0.25% trypsin. Tetracycline-free “treatment medium” (15 mL DMEM/F12 (1:1) (cat #SH30023.01, Hyclone, 1×Pen/step (cat #: 30-002-CL, Mediatech, Inc), with 2% FBS, Tet-system approved (cat #: 631106, Clontech) were then added to mix and spun at 1300 rpm for 5 min. Pelleted cells were then re-suspended/washed with 50 mL of 1×PBS 2 times and 10 mL Treatment Medium one time. AD38 cells were then re-suspended with 10 mL of Treatment Medium and counted. Wells of a collagen coated 96-well NUNC microtiter plate were seeded at 50,000/well in 180 μL of Treatment Medium, and 20 μL of in treatment media with either 10% DMSO (Control) or a 10× solution of compound in 10% DMSO was added. Plates were incubated for 6 days at 37° C.
Viral load production was assayed by quantitative PCR of the core sequence. Briefly, 5 μL of clarified supernatant was added to a PCR reaction mixture that contained forward primers HBV-f 5′-CTGTGCCTTGGGTGGCTTT-3′, Reverse primers HBV-r 5′-[…]-3′ and Fluorescent TaqMan™ Probes HBV-probe 5′-FAM/AGCTCCAAA/ZEN/[…]/3IABkFQ-3′ in Quanta Biosciences PerfeCTa® qPCR Toughmix®, and was subsequently on an Applied Biosystems VIIA7 in a final volume of 20 μL. The PCR mixture was incubated at 45° C. for 5 minutes, then 95° C. for 10 min, followed by 40 cycles of 10 seconds at 95° C. and 20 seconds at 60° C. Viral load was quantitated against known standards by using ViiA™ 7 Software. Viral load in the supernatant from wells with treated cells were compared against viral load in supernatant from DMSO control wells (≥3 per plate).

[2] = test system: AD38 cells; test: Viability of AD38 cells, Promega CellTiter-Glo; type: cell-based; details: 6 days incubation, controls being 100%; for AD38 Viability Normalized Result (CPAM/DMSO %) at 10 μM: Table 6, compounds of Group 4
Method: as §1, §2
At the end of compound treatment period cell viability was assessed using a Promega CellTiter-Glo protocol. All supernatant was removed the previously treated 96-well microtiter plate, and 50 μL Tetracycline-free treatment medium (DMEM/F12 (1:1), 1×Pen/step (cat #: 30-002-CL, Mediatech, Inc), with 2% FBS, Tet-system approved (cat #: 631106, Clontech), and 1% DMSO was added back to each well. Another 50 μL of CellTiter-Glo reagent solution (Promega, G7573) was then added at room temperature and the contents mixed for 2 minutes on an orbital shaker to induce cell lysis. This was followed by incubation at room temperature for 10 minutes to stabilize the luminescent signal. The luminescence was recorded for 0.2 seconds per well on a Tecan multimode platereader (Infinite M1000 pro). The luminescent signal from each well was normalized against that of untreated (DMSO) control wells. All results in Tables 3-6 were reported with percent viability (with controls being 100%).

[3] = Table 4, compounds of Group 2, read-out: AD38 Viral Load (%) (VL with cmpd/VL in DMSO control) at 10 μM
[4] = Table 6, compounds of Group 4, read-out: AD38 Viral Load (CpAM/DMSO %) at 10 μM

Compound	activity at 10 µM [1, 3] [%]	AD38 Viability Normalized Result (cmpd/DMSO %) at 10 μM ([2]; Table 4, compounds of Group 2) [%]	also measured
CC1=C(C)S(=O)(=O)c2ccc(C(=O)NCc3cnc(-c4ccc(C#N)cc4F)s3)cc2NC1=O [Compound C10-02]	4	95	
CC1=C(C)S(=O)(=O)c2ccc(C(=O)NCc3cnc(-n4cccn4)s3)cc2NC1=O [Compound C10-04]	1.8	92	
CC1=C(C)S(=O)(=O)c2ccc(C(=O)NCc3cnc(-c4ccc(OCCCN(C)C)cc4)s3)cc2NC1=O [Compound C10-05]	11.3	90	
CC1=C(C)C(=O)Nc2cc(C(=O)NCc3cnc(C(F)(F)F)s3)ccc2S1 [Compound C12-01, 2,3-Dimethyl-4-oxo-N-((2-(trifluoromethyl)thiazol-5-yl)methyl)-4,5-dihydrobenzo[b][1,4]thiazepine-7-carboxamide]	15.5	97	
CC1=C(C)C(=O)Nc2cc(C(=O)NCc3cnc(-c4ccc(C#N)cc4F)s3)ccc2S1 [Compound C12-02]	21.4	99	
N#Cc1ccc(-c2ncc(CNC(=O)c3ccc4cc[nH]c4c3)s2)c(F)c1 [Compound C13-02, N-((2-(4-cyano-2-fluorophenyl)thiazol-5-yl)methyl)-1H-indole-6-carboxamide]			activity at 10 µM [1, 4]: 16.1%; AD38 Viability Normalized Result (CPAM/DMSO %) at 10 μM [2]: 105%
Cc1c[nH]c2cc(C(=O)NCc3cnc(C(F)(F)F)s3)ccc12 [Compound C14-01, 3-Methyl-N-((2-(trifluoromethyl)thiazol-5-yl)methyl)-1H-indole-6-carboxamide]			activity at 10 µM [1, 4]: 63%; AD38 Viability Normalized Result (CPAM/DMSO %) at 10 μM [2]: 113%
N#Cc1ccc(-c2ncc(CNC(=O)c3ccc4c(CC5CCOCC5)c[nH]c4c3)s2)c(F)c1 [Compound C18-02, N-((2-(4-cyano-2-fluorophenyl)thiazol-5-yl)methyl)-3-((tetrahydro-2H-pyran-4-yl)methyl)-1H-indole-6-carboxamide]			activity at 10 µM [1, 4]: 62.9%; AD38 Viability Normalized Result (CPAM/DMSO %) at 10 μM [2]: 106%
O=C(NCc1cnc(C(F)(F)F)s1)c1ccc2c(C3CCCCC3)c[nH]c2c1 [Compound C19-01, 3-Cyclohexyl-N-((2-(trifluoromethyl)thiazol-5-yl)methyl)-1H-indole-6-carboxamide]			activity at 10 µM [1, 4]: 30.8%; AD38 Viability Normalized Result (CPAM/DMSO %) at 10 μM [2]: 79%
Cc1[nH]c2cc(C(=O)NCc3cnc(C(F)(F)F)s3)ccc2c1C1CCCCC1 [Compound C20-01, 3-Cyclohexyl-2-methyl-N-((2-(trifluoromethyl)thiazol-5-yl)methyl)-1H-indole-6-carboxamide]			activity at 10 µM [1, 4]: 45.9%; AD38 Viability Normalized Result (CPAM/DMSO %) at 10 μM [2]: 47%
O=C1CC2CCCCN2c2ccc(C(=O)NCc3cnc(C(F)(F)F)s3)cc2N1 (stereo not shown) [Compound C21-01]	45.9	39	
N#Cc1ccc(-c2ncc(CNC(=O)c3ccc4c(c3)NC(=O)CC3CCCCN43)s2)c(F)c1 (stereo not shown) [Compound C21-02]	48.9	15	
Cc1c(C(=O)NCc2cnc(-c3ccc(OCCCN(C)C)cc3)s2)ccc2c1NC(=O)c1ccncc1S2(=O)=O [Compound C22-01]	7.1	92	
Cc1c(C(=O)NCc2cnc(-n3cccn3)s2)ccc2c1NC(=O)c1ccncc1S2(=O)=O [Compound C22-02]	0.9	85	
Cc1c(C(=O)NCc2cnc(-c3ccc(C#N)cc3F)s2)ccc2c1NC(=O)c1ccncc1S2(=O)=O [Compound C22-03]	0.5	90	
N#Cc1ccc(-c2ncc(CNC(=O)c3ccc4c(c3)NC(=O)C3CCCN3S4(=O)=O)s2)c(F)c1 (stereo not shown) [Compound C24-02]	43	100	
O=C(NCc1cnc(-n2cccn2)s1)c1ccc2c(c1)NC(=O)C1CCCN1S2(=O)=O (stereo not shown) [Compound C24-04]	7.7	104	
N#Cc1ccc(-c2ncc(CNC(=O)c3ccc4c(c3)NC(=O)C3CCCCN3S4(=O)=O)s2)c(F)c1 (stereo not shown) [Compound C25-02]	0.5	95	
O=C(NCc1cnc(-n2cccn2)s1)c1ccc2c(c1)NC(=O)C1CCCCN1S2(=O)=O (stereo not shown) [Compound C25-04]	5.4	98	
O=C1NC2=C(CCN(C(=O)NCc3cnc(-n4cccn4)s3)C2)S(=O)(=O)c2ccccc21 [Compound C43-01, N-((2-(1H-pyrazol-1-yl)thiazol-5-yl)methyl)-10-oxo-3,4,10,11-tetrahydrobenzo[f]pyrido[4,3-b][1,4]thiazepine-2(1H)-carboxamide 5,5-dioxide]	64.4	97	
CN(C)CCCOc1ccc(-c2ncc(CNC(=O)c3ccc4c(c3)NC(=O)c3ccncc3S4(=O)=O)s2)cc1 [Compound C46-01]	8.5	101	
O=C(NCc1cnc(-n2cccn2)s1)c1ccc2c(c1)NC(=O)c1ccncc1S2(=O)=O [Compound C46-02]	0.9	102	
ten-butyl (2-(4-(5-((5,5-dioxido-11-oxo-10,11-dihydrodibenzo[b,f][1,4]thiazepine-8-carboxamido) methyl) thiazol-2-yl) piperidin-1-yl)-2-oxoethyl) (methyl) carbamate [Compound 1035-A]			AD38 Viral Load (%) (VL with cmpd/VL in DMSO control) at 10 μM ([1]; Table 3, compounds of Group 1): 57.8%; AD38 Viability Normalized Result (cmpd/DMSO %) at 10 μM ([2]; Table 3, compounds of Group 1): 102%
